Measurements published in patent EP0827486B1, “STABILIZED ALKALI OR ALKALINE EARTH METAL HYPOBROMITE AND PROCESS FOR ITS PRODUCTION” (NALCO CHEMICAL COMPANY, priority 1996, dated 1997).

How the values were obtained:
[1] = Storage stability: loss of available halogen; assay type: physicochemical
Procedure: Sodium hypochlorite solution was diluted in demand-free water. This diluted solution was titrated by the DPD-FAS method. The available chlorine level present in the original solution was determined to be 15 percent. 42.4 grams of the neat NaOCl solution were added to 20.5 grams of a 45 percent NaBr solution. This reaction forms unstabilized NaOBr. The stabilization solution was formulated with 9.6 grams of sulfamic acid, 14 grams of water, and 13.2 grams of 50 percent sodium hydroxide. The stabilization solution is then added with stirring to the NaOBr. The order of addition is critical in this process which differs from the Goodenough et al. reference. For instance, if the stabilizer was added to NaOCl prior to NaBr introduction, the bromide would not be oxidized to hypobromite. […] The stabilization procedure described here improved on the prior art as the decline of active ingredient was only 1 percent after 84 days (see Table I above). An unstabilized NaOBr solution prepared in an similar process by replacing sulfamic acid with distilled water lost 94 percent available halogen during the same period.

[2] = Source text: AOX is a generic class of compounds which includes all organic molecules containing halogen. Limits for AOX discharge from cooling water systems have already been established in some European countries. To simulate AOX formation during stabilized and unstabilized sodium hypobromite action in cooling water, a mixed bacterial culture typically found in cooling water was cultivated in L-broth overnight and the cells harvested by centrifugation. The cell pellet was washed with synthetic cooling water (90 ppm calcium, 50 ppm magnesium, 110 ppm "M" alkalinity, pH 8.0 -8.2) twice to remove the remaining organic medium. Cells were then resuspended into an equal volume of cooling water. A capped dark bottle served as the reactor. Synthetic cooling water was added to the bottle followed by the washed bacterial stock yielding approximately 10^7 cells/ml. Stabilized NaOBr or unstabilized NaOBr was dosed into this bacterial suspension at a final concentration of 1, 2, 3, or 4 ppm total halogen (as chlorine). Headspace in the bottle was minimized to avoid the evaporative loss of halogenated organics and the solution stirred for 24 hours to simulate a typical cooling system. Immediately before AOX analysis, the sample was acidified to pH 2.0 with concentrated nitric acid. A Mitsubishi TOX-10 Analyzer was used according to US EPA Method 9020 to measure the AOX concentration in the samples. […]
Pseudomonas aeruginosa = assay: Antibacterial activity of stored hypohalite solutions in cooling water; assay type: cell-based; details: volume initially required for one ppm free halogen
Procedure: Freshly prepared solutions of stabilized and unstabilized sodium hypobromite were diluted then added to cooling water in order to achieve a one ppm free halogen residual (as chlorine). Sodium hypochlorite was stabilized in the same fashion as described for NaOBr in Example One with the exception that NaBr was directly replaced with distilled water. Stabilized and unstabilized sodium hypochlorite were diluted then added to cooling water at a final concentration of one ppm free halogen residual (as chlorine). The volumes of all solutions needed to achieve a one ppm free halogen residual (as chlorine) was recorded. Following 6 and 21 days of dark storage, identical dilutions of stabilized and unstabilized sodium hypohalite solutions were prepared and the volume originally required for a one ppm free halogen residual (as chlorine) was added to cooling water containing approximately 10^6 Pseudomonas aeruginosa cells / mL. Aliquots were extracted at 10 and 30 minutes into cooling water dilution blanks containing a halogen neutralizer (0.05 percent Na2S2O3) then enumerated on tryptone glucose extract agar. Stabilized NaOBr retained its antibacterial activity after storage while the unstabilized form lost its efficacy against Pseudomonas aeruginosa (see Table III below). The results were even more dramatic as the storage period increased. This effect was likely due to the disproportionation of the unstable hypobromite ion into the non-biocidal species bromide and bromate. […]

[3] = Bromate formation in stored solutions (ion chromatography); assay type: physicochemical; details: STORED FOR EIGHT MONTHS in the dark at room temperature; pH 14
Procedure: Hypohalite ions are known to disproportionate into halate and halide under alkaline conditions. Halate ions are undesirable degradants being suspect carcinogens and are under consideration for governmental regulation. The reaction of NaBr with NaOCI can yield significant amounts of bromate in elevated pH environments. […] Stabilized and unstabilized sodium hypobromite solutions were prepared as described in Example One. These solutions were stored in the dark at room temperature during the course of the study. Eight month old samples of stabilized and unstabilized NaOBr, both maintained at pH 14, a condition suitable for bromate formation, were assayed for bromate. A Dionex 4000 series gradient ion chromatography system equipped with AG9-SC/AS9-SC columns and a conductivity detector was used to measure the bromate concentration in the samples. The chromatograph was operated according to a method currently under investigation by the EPA for the analysis of bromate in ozonated drinking water. Purified water from an Interlake Water Systems deionization system was used for the preparation of all reagents and standard solutions to prevent contamination.

[4] = Bromate analysis of cooling water dosed with dilute solutions; assay type: physicochemical; details: cooling water (pH 8.3); total available halogen 1, 2, 3, and 4 ppm (as Cl2)
Procedure: As noted above, the pH of these solutions was high which favors bromate formation. However, NaOCl, which contains significant amounts of NaOH, is typically diluted with system water prior to the introduction of the bromide species in most industrial applications. The pH of this diluted system would be lower than the neat NaOCI / NaBr formulation described above theoretically minimizing bromate formation. The available chlorine in a NaOCI sample diluted (1:100) with distilled water was titrated by the DPD-FAS method. A solution of 45 percent sodium bromide was added to the dilute NaOCI at a molar ratio of 1 Cl2 : 1 Br^- forming NaOBr. This reaction proceeded for thirty minutes. Then, appropriate volumes of this dilute NaOBr solution were added to cooling water (pH 8.3) giving total available halogen levels of 1, 2, 3, and 4 ppm (as Cl2) as determined by the DPD-FAS method. Similarly, a dilution of stabilized sodium hypobromite (1:100) was made in distilled water. Dilute stabilized NaOBr was added to cooling water (pH 8.3) giving total available halogen levels of 1, 2, 3, and 4 ppm (as Cl2) as determined by the DPD-FAS method. Bromate analysis then proceeded in the manner described above. Bromate was not detected in any of the cooling water samples dosed with either stabilized or unstabilized dilute NaOBr at typical use concentrations.

[5] = Volatility: halogen vapors from concentrated solutions in a beaker; assay type: physicochemical; details: concentrated solution in a beaker
Procedure: Concentrated solutions of either NaOCI, NaOBr, or stabilized NaOBr were added to a beaker. […] No odors were noticed from the stabilized NaOBr. This is an improvement over existing products by minimizing halogen odors in product storage areas.

[6] = 6 DAYS OF STORAGE, CONTACT TIME 10 MINUTES
[7] = 6 DAYS OF STORAGE, CONTACT TIME 30 MINUTES
[8] = 21 DAYS OF STORAGE, CONTACT TIME 10 MINUTES
[9] = 21 DAYS OF STORAGE, CONTACT TIME 30 MINUTES

Compound | % LOSS OF AVAILABLE HALOGEN ([1]; After 14 days) | % LOSS OF AVAILABLE HALOGEN ([1]; After 21 days) | % LOSS OF AVAILABLE HALOGEN ([1]; After 34 days) | % LOSS OF AVAILABLE HALOGEN ([1]; After 84 days) | % LOSS OF AVAILABLE HALOGEN ([1]; After 84 days, listed as unstabilized NaOBr) | linear-fit equation AOX (ppb) = factor X Dose (ppm) [2] | % BACTERIA KILLED (Pseudomonas aeruginosa; [6]) | % BACTERIA KILLED (Pseudomonas aeruginosa; [7]) | % BACTERIA KILLED (Pseudomonas aeruginosa; [8]) | % BACTERIA KILLED (Pseudomonas aeruginosa; [9]) | PERCENT BROMATE [3] | Bromate [4] | Halogen vapors / odors [5]
[Na+].[O-]Br [Unstabilized Sodium Hypobromite, sodium hypobromite] | 74% | 79% | 84% | 93% | 94% | 53.9 | 99.8% | 99.7% | 0.4% | 6.1% | 2.700% | not detected | Halogen vapors were detected
[Na+].[O-]Cl [unstabilized NaOCl, sodium hypochlorite] | – | – | – | – | – | – | 100% | 100% | 100% | 100% | – | – | Halogen vapors were detected
